Measurements as given in PubChem BioAssay AID256 (DTP/NCI, 2004).
Where “and” joins values, the source holds several entries; their conditions need not be identical. Identical values can stand only once. Inconclusive results and toxic doses are left out.

System: CD2F1 mice, L1210 leukemia ip, survival T/C
Assay: NCI In Vivo Anticancer Drug Screen. Data for tumor model L1210 Leukemia (intraperitoneal) in CD2F1 (CDF1) mice
Details: higher = longer survival
Method in brief: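 Transplantable tumor in mice; compound-treated vs vehicle-treated groups. Read-out = treated/control ratio of the measured endpoint.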

[1] = endpoint: mean survival time, dose: 100.0 mg/kg/injection, schedule: Q01DX009 (ip), vehicle: saline with Tween-80
[2] = endpoint: mean survival time, dose: 100.0 mg/kg/injection, schedule: Q04DX003 (ip), vehicle: saline with Tween-80
[3] = endpoint: mean survival time, dose: 200.0 mg/kg/injection, schedule: Q04DX003 (ip), vehicle: saline with Tween-80
[4] = endpoint: mean survival time, dose: 400.0 mg/kg/injection, schedule: Q04DX003 (ip), vehicle: saline with Tween-80
[5] = endpoint: mean survival time, dose: 100.0 mg/kg/injection, schedule: Q01DX009 (ip), vehicle: saline
[6] = endpoint: mean survival time, dose: 200.0 mg/kg/injection, schedule: Q01DX009 (ip), vehicle: saline
[7] = endpoint: mean survival time, dose: 75.0 mg/kg/injection, schedule: Q01DX001 (ip), vehicle: saline
[8] = endpoint: mean survival time, dose: 50.0 mg/kg/injection, schedule: Q01DX009 (ip), vehicle: saline

O=NN(CCCl)C(=S)NCCCl
T/C (endpoint: mean survival time, dose: 1.87 mg/kg/injection, schedule: Q01DX001 (ip), vehicle: distilled water + Tween-80): 113 % of control
T/C (endpoint: mean survival time, dose: 3.75 mg/kg/injection, schedule: Q01DX001 (ip), vehicle: distilled water + Tween-80): 115 % of control
T/C (endpoint: mean survival time, dose: 15.0 mg/kg/injection, schedule: Q01DX001 (ip), vehicle: distilled water + Tween-80): 159 % of control and 215 % of control
T/C (endpoint: mean survival time, dose: 30.0 mg/kg/injection, schedule: Q01DX001 (ip), vehicle: distilled water + Tween-80): 318 % of control

CC(=O)Nc1ncc(C)s1
T/C [1]: 102 % of control
T/C [2]: 97 % of control
T/C (endpoint: mean survival time, dose: 200.0 mg/kg/injection, schedule: Q01DX009 (ip), vehicle: saline with Tween-80): 104 % of control
T/C [3]: 101 % of control
T/C (endpoint: mean survival time, dose: 400.0 mg/kg/injection, schedule: Q01DX009 (ip), vehicle: saline with Tween-80): 95 % of control
T/C [4]: 101 % of control

CC(=O)OCC1OC(Oc2ccccc2)C(OC(C)=O)C(OC(C)=O)C1OC(C)=O (configuration not stated)
T/C (endpoint: median survival time, dose: 50.0 mg/kg/injection, schedule: Q04DX002 (ip), vehicle: saline with Tween-80): 100 % of control
T/C (endpoint: median survival time, dose: 100.0 mg/kg/injection, schedule: Q04DX002 (ip), vehicle: saline with Tween-80): 100 % of control
T/C (endpoint: median survival time, dose: 200.0 mg/kg/injection, schedule: Q04DX002 (ip), vehicle: saline with Tween-80): 111 % of control
T/C (endpoint: median survival time, dose: 400.0 mg/kg/injection, schedule: Q04DX002 (ip), vehicle: saline with Tween-80): 88 % of control

CCC(CC)c1ccccn1
T/C [5]: 115 % of control
T/C (endpoint: mean survival time, dose: 100.0 mg/kg/injection, schedule: Q04DX003 (ip), vehicle: saline): 99 % of control
T/C [6]: 120 % of control
T/C (endpoint: mean survival time, dose: 200.0 mg/kg/injection, schedule: Q04DX003 (ip), vehicle: saline): 99 % of control
T/C (endpoint: mean survival time, dose: 400.0 mg/kg/injection, schedule: Q01DX009 (ip), vehicle: saline): 117 % of control
T/C (endpoint: mean survival time, dose: 400.0 mg/kg/injection, schedule: Q04DX003 (ip), vehicle: saline): 110 % of control

COc1cccc(CCNc2ccncc2N)c1
T/C [7]: 96 % of control

CC(C)(C)OC(=O)NCC(=O)ON1C(=O)CCC1=O
T/C [2]: 96 % of control
T/C [3]: 87 % of control

Cc1[se]c2ccccc2[n+]1C
T/C [7]: 98 % of control
T/C (endpoint: mean survival time, dose: 150.0 mg/kg/injection, schedule: Q01DX001 (ip), vehicle: saline): 107 % of control

O=[N+]([O-])c1cccc(S(=O)(=O)O)c1.[Fe]
T/C [8]: 103 % of control
T/C [5]: 91 % of control

NCCCNC(=O)OCc1ccccc1
T/C (endpoint: mean survival time, dose: 100.0 mg/kg/injection, schedule: Q01DX001 (ip), vehicle: saline): 105 % of control
T/C (endpoint: mean survival time, dose: 200.0 mg/kg/injection, schedule: Q01DX001 (ip), vehicle: saline): 102 % of control
T/C (endpoint: mean survival time, dose: 400.0 mg/kg/injection, schedule: Q01DX001 (ip), vehicle: saline): 102 % of control

NC(N)=NNc1ccccc1
T/C (endpoint: mean survival time, dose: 6.25 mg/kg/injection, schedule: Q01DX009 (ip), vehicle: saline): 100 % of control
T/C (endpoint: mean survival time, dose: 12.5 mg/kg/injection, schedule: Q01DX009 (ip), vehicle: saline): 100 % of control
T/C (endpoint: mean survival time, dose: 25.0 mg/kg/injection, schedule: Q01DX009 (ip), vehicle: saline): 96 % of control

Cc1ccc([PH+](c2ccc(C)cc2)c2ccc(C)cc2)cc1.Cc1ccc([PH+](c2ccc(C)cc2)c2ccc(C)cc2)cc1.[Cl][Hg][Cl]
T/C [8]: 103 % of control
T/C [5]: 95 % of control
T/C [6]: 91 % of control

S=C(CCc1ccc2c(c1)CCCC2)N1CCOCC1
T/C [2]: 98 % of control
T/C [3]: 98 % of control
T/C [4]: 97 % of control

CC1=NCCN1CCN
T/C (endpoint: mean survival time, dose: 100.0 mg/kg/injection, schedule: Q04DX002 (ip), vehicle: saline): 91 % of control
T/C (endpoint: mean survival time, dose: 200.0 mg/kg/injection, schedule: Q04DX002 (ip), vehicle: saline): 109 % of control
T/C (endpoint: mean survival time, dose: 400.0 mg/kg/injection, schedule: Q04DX002 (ip), vehicle: saline): 113 % of control

O=C=Nc1ccc(N=Nc2ccccc2)cc1
T/C (endpoint: mean survival time, dose: 25.0 mg/kg/injection, schedule: Q01DX009 (ip), vehicle: saline with Tween-80): 89 % of control
T/C (endpoint: mean survival time, dose: 50.0 mg/kg/injection, schedule: Q01DX009 (ip), vehicle: saline with Tween-80): 88 % of control
T/C (endpoint: mean survival time, dose: 100.0 mg/kg/injection, schedule: Q01DX001 (ip), vehicle: saline with Tween-80): 95 % of control
T/C [1]: 98 % of control
T/C (endpoint: mean survival time, dose: 400.0 mg/kg/injection, schedule: Q01DX001 (ip), vehicle: saline with Tween-80): 90 % of control
